Experimental data taken from paper PMC9687439 (Biology, 2022).
Entries after “also recorded” stand apart in the source; their conditions may differ. Read-outs that look alike come from different tables or passages of the source. Ends that are not written are not given here.

Legend:
[1] = test system: Xylella fastidiosa cells; format: cell-based
[2] = test system: Xylella fastidiosa subsp. pauca isolate De Donno in Nicotiana tabacum (var. Xanthi); format: in vivo
[3] = test system: Xf; conditions: 1 mg/mL; cited from earlier work
[4] = test system: Xf strain 9a5c; conditions: cited from earlier work
[5] = test system: Xanthomonas albilineans (Xa), strain CFBP2523; format: cell-based; design: key: +++: Clear plaque formation; ++: turbid plaque formation; +: highly turbid plaque formation; -: no plaque formation
[6] = test system: Xylella fastidiosa subsp. pauca, strain De Donno; format: cell-based
[7] = test system: Xylella fastidiosa subsp. pauca, strain De Donno; format: cell-based; remark: listed apart in the source
[8] = test system: Xylella fastidiosa cells; format: cell-based; remark: listed apart in the source
[9] = test system: Xylella fastidiosa cells; format: cell-based; remark: listed apart in the source
[10] = test system: Xylella fastidiosa biofilm; format: cell-based; conditions: 50 μM, 20 days, 28 °C
[11] = test system: S. aureus; conditions: cited from earlier work
[12] = test system: E. coli; conditions: cited from earlier work
[13] = test system: Nicotiana tabacum cv. Xanthi leaves; conditions: in vivo
[14] = test system: X. fastidiosa; conditions: cited from earlier work

Row | Compound | growth inhibition of Xanthomonas albilineans (plaque formation) [5] | antimicrobial activity on Xf growth in antibiogram [6] | reductive activity against Xf cells (OD600, words) [7] | lytic activity by fluorescence microscopy (live green / dead red) [9] | morphological changes of Xf cells under TEM [1] | effect on Xf biofilm formation (comparison, words) [10] | MIC (μM) S. aureus [11] [µM] | MIC (μM) E. coli [12] [µM] | other results
1 | CC(=O)N[C@@H](CS)C(=O)O [NAC, N-acetyl-L-cysteine] | – | – | – | – | – | – | – | – | morphological changes of Xf cells under TEM ([1]; 50 μM, 1 h, room temperature, Xf 10^8 CFU/mL): pore and protrusion formation and condensed cytoplasmic outflow from the outer membrane; Xf disease symptoms in Xf-infected tobacco plants ([2]; 30 dpi, 100 μL of treatment at inoculation point): did not develop any symptoms; Xf disease symptoms in Xf-infected tobacco leaf ([2]; 45 dpi, positive control treatment): no symptoms; activity against Xf [3]: biocidal; effect on biofilm biomass of Xf strain 9a5c [4]: reducing the biofilm biomass
2 | FFGKVLKLIRKIF-NH2 [FF13, DASamP1, synthetic antimicrobial peptide, …-NH2] | +++ | particularly highly active | greatest activity | moderate lytic activity | cytoplasmic condensation, loss of interior appearance, and alteration of the outer membrane | greater performance than KL29 | 3.1 | >100 | reduction in Xf cell viability (v-qPCR) [8]: twofold reduction in cell viability
3 | FFHHIFRGIVHVGKTIHRLVTG [FG22, Piscidin 1, antimicrobial peptide, source fish] | +++ and - | – | – | – | – | – | 3.1 | 12.5 | –
4 | GFKDLLKGAAKALVKTVLF-NH2 [GF19, Ascaphin-8] | +++ | particularly highly active; also recorded: distinct inhibitory activity | greatest activity | highest lytic activities | damaged and fragmented cell walls, with complete destruction of the outer and inner bacterial membranes | interfered with biofilm formation in the same manner as NAC; also recorded: greater performance than KL29 | 3.1 | 12.5 | reduction in viability of Xf compared to untreated cells (v-qPCR) [8]: more-than-fourfold reduction in viability; diameter of halo-shaped tissue dissolving in tobacco leaves [13]: 7 mm; hypersensitive reaction in tobacco leaves [13]: light hypersensitive reaction
5 | GLLGLLGSVVSHVVPAIVGHF-NH2 [GF21, Maculatin 1.3, antimicrobial peptide, source frog] | +++ and - | – | – | – | – | – | 6.2 | >100 | –
6 | IKWKKLLRAAKRIL-NH2 [IL14, DASamP2, synthetic antimicrobial peptide, […]-NH2] | +++ | particularly highly active | greatest activity | moderate lytic activity | cytoplasmic condensation, loss of interior appearance, and alteration of the outer membrane | greater performance than KL29 | 6.2 | 3.1 | reduction in Xf cell viability (v-qPCR) [8]: twofold reduction in cell viability
7 | Lycotoxin I [IL25] | +++ and - | – | – | – | – | – | 3.1 | 25 | –
8 | RIVWVRIRRWFV-NH2 [RV12, RIJK2, synthetic antimicrobial peptide, …-NH2] | +++ and + | – | – | – | – | – | – | – | MIC (μM) X. fastidiosa [14]: 12.5 µM
9 | VQFRIRVRIVIRK-NH2 [VK13, 1036, synthetic antimicrobial peptide, […]-NH2] | +++ and + | – | – | – | – | – | – | – | MIC (μM) X. fastidiosa [14]: 12.5 µM
